Bridge positions count the residues as written; N and C are the ends. Square brackets hold non-standard residues; d marks the D form. Peptide text beside a SMILES is read from it. R8 = C=CCCCCCC[C@@](C)(N)C(=O)O; S5 = C=CCCC[C@](C)(N)C(=O)O
Tests used:
[1] = biological target: IR (Homo sapiens, UniProt P06213); conditions: read-out: affinity to the IR (kD); cited from earlier work
[2] = tested on: rat adipocytes; conditions: cited from earlier work
[3] = tested on: phosphorylation of Akt1 at Ser473; test: Phospho-Akt1 (Ser473) sandwich ELISA in HepG2 cells, antagonism and agonism screening; format: cell-based, human
Method: We note that although S371 has a high affinity to IR, it can barely induce downstream effects such as lipogenesis in rat adipocytes, which may reconcile with the result of no increase in downstream Akt phosphorylation. The effect of the peptides on insulin signaling was determined using a sandwich ELISA assay kit (Cell Signaling) designed to measure phosphorylation of Akt Ser473, a downstream target in the insulin signaling pathway. For each compound, cells were treated both in the presence and absence of insulin to reveal either antagonism or agonism, respectively, of insulin signaling.
Preparation: insulin stock solution at 50 μM (0.3 mg/ml or 30 mg/100 ml). To make stock: dissolved 10 mg in 1 ml 0.01 N HCl, heat at 37° C. to dissolve, then added to 32 ml, PBS, sterile filtered and stored at −20 C. Working stock would stay in good quality for 1 month at 4° C. […]
For the phospho-Akt1 ELISA assay, clarified lysate was first quantified using the standard BCA method, and all samples were adjusted to have the same total protein concentration. […]
The following day, wells were drained and washed four times with 1× Wash Buffer. […] Chemiluminescence was read under RLU mode in the […] SpectraMax Plate Reader at […] within 1-10 minutes of addition of substrate.

[4] = biological target: T1, IRβ Tyr1150/1151 (Homo sapiens, UniProt P06213); test: Immunoblotting of IR auto-phosphorylation in CHO-IR cells; format: cell-based; conditions: 10 μM peptides in the presence of 50 nM insulin
T1 construct: expressed in transfected cells; host or cells: CHO-IR (CHO cells stably expressing IR, from the Morris White lab)
Method: To perform this type of direct assay, a CHO-IR cell line that stably expresses IR (provided by Morris White lab) was treated with SIRB peptides to detect auto-phosphorylation of IRβ Tyr1150/1151 (Cell signaling) by western blot.
CHO-IR cells were seeded in 24-well plates and grown in Ham's F-12, 10% FBS medium to >80% confluent (in ˜48 hours). The cells are starved in Ham's F-12 medium without FBS for two hours prior to experiment.
For agonistic studies, cells were incubated in fresh Ham's F-12 without FBS (negative control and baseline for normalization) or the same medium with 50 nM insulin (positive control and 100% activity for normalization). Experimental wells were incubated in the same medium containing various concentrations of peptide (typically 1 uM, 10 uM, and 100 uM). All cells were incubated at 37° C. for 15 min or 30 min.
For antagonistic studies, the experiment could be done with or without pre-treatment with peptides. In the case without, cells were incubated in fresh Ham's F-12 without FBS (negative control and baseline for normalization) or the same medium with 50 nM insulin (positive control and 100% activity for normalization).
Experimental wells were incubated in the same medium containing various concentrations of peptide (typically 1 uM, 10 uM, and 100 uM) AND 50 nM insulin. All cells were incubated at 37 C. for 15 min. […]

[5] = tested on: mIR-Fn1-Ex10; test: Affinity pull-down of IR construct by biotinylated peptide on streptavidin beads; conditions: 1% BSA in binding buffer, competition by insulin
Text: (§1) FIGS. 8A-8C depict the affinity pull-down of IR by SIRB-B5. 1% BSA added to binding buffer. FIG. 8A depicts the pull-down assay: Biotinylated SIRB-B5 could be immobilized on streptavidincoated beads and pull down IR from expression medium. Precipitated protein could be visualized by Western blot of His5 tag. FIG. 8B depicts L1-CR-L2 pulled down by SIRB-B5. FIG. 8C depicts mIR-Fn1-Ex10 pulled down by SIRB-B5 and competition by insulin.

[6] = biological target: T2, L1-CR-L2 (Homo sapiens, UniProt P06213); test: as above; conditions: 1% BSA in binding buffer, Western blot of His5 tag
T2 construct: made in house; host or cells: HEK293 (stably transfected; protein used from expression medium)
Text: as §1

[7] = tested on: phosphor-Akt S473; test: Dose-response ELISA of phospho-Akt S473 in CHO-IR cell lysates; format: cell-based; conditions: 50 nM insulin
Method: FIG. 6 depicts the dose-response of antagonist SIRB-B5. CHO-IR cells were treated with 50 nM insulin and increasing concentrations of SIRB-B5. ELISA assays of phosphor-IR Y1150/1151 and phosphor-Akt S473 were performed with cell lysates.
For further verification of biological activity, the SIRB peptide library was screened again using IR auto-phosphorylation as an indicator. […] A possible explanation for the differential plateau values is that phosphorylation of Akt1 is controlled by many other pathways as well and thus difficult to abolish completely.

[8] = biological target: T3, IGF-1R (Homo sapiens, UniProt P08069); test: IGF-1R phosphorylation Western blot after immunoprecipitation, HepG2 cells with IGF1; format: cell-based; conditions: in the presence of IGF1
T3 construct: host or cells: HepG2
Method: FIG. 11 depicts SIRB-B5 antagonism on IGF-1R. HepG2 cells were treated with SIRB-B5 in the presence of IGF1. IGF-1R was immunoprecipitated to be distinguished from IR on a Phospho-IR/IGF-1R Western blot.

T3 sequence (P08069 31-736 limits assumed): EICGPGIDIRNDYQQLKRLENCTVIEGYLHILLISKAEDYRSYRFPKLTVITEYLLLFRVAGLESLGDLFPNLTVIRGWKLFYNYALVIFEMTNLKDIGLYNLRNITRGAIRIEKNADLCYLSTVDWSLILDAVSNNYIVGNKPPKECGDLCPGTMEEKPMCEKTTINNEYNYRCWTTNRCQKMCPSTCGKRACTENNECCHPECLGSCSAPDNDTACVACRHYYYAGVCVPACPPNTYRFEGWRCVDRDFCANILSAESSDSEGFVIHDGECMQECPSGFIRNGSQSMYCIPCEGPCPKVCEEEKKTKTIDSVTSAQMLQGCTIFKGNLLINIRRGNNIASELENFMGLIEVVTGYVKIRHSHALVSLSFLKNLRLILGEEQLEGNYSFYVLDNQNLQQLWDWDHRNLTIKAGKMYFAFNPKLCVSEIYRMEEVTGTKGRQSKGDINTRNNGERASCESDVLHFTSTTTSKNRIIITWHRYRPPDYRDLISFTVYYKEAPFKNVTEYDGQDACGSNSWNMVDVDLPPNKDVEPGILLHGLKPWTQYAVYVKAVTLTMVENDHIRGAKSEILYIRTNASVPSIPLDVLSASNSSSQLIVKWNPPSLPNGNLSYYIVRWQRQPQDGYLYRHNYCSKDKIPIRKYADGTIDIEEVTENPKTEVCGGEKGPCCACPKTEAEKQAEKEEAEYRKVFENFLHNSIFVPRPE
T3 sequence (P08069 741-1367 partner limits assumed): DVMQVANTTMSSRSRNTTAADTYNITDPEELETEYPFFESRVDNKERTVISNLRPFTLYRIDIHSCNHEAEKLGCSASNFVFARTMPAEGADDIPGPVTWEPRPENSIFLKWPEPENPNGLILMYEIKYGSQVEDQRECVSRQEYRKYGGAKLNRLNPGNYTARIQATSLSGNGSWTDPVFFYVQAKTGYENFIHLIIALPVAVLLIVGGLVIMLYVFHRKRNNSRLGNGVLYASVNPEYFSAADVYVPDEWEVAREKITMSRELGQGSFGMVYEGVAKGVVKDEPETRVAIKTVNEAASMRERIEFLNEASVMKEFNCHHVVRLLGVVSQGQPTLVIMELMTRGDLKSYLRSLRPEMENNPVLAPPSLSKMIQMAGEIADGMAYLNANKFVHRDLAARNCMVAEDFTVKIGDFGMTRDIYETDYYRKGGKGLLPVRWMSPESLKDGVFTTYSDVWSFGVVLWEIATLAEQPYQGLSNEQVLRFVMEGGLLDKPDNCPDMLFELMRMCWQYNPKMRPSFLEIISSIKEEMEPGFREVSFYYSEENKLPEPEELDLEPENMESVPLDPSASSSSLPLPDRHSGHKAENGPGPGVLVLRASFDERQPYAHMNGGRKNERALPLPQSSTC

Compound | Kd [1] | induction of lipogenesis [2] | reduction of the insulin-induced Akt-S473 phosphorylation signal ([3]; 10 μM peptide in the presence of 50 nM insulin) | agonistic effect on Akt phosphorylation, peptide alone ([3]; absence of insulin) | effect on insulin-induced auto-phosphorylation of IR (Phospho-IR western blot) [4] | pull-down of mIR-Fn1-Ex10 [5] | pull-down of L1-CR-L2 [6] | IC50 ([7]; CHO-IR cells, read-out: IC50, inhibition of insulin-induced phosphorylation of Akt) | Akt phosphorylation, % of control ([7]; maximal dose of 100 μM peptide) | antagonism on IGF-1R [8]
S371: previously reported insulin-mimetic site 1 peptide of 16 residues from phage display; lead for stapling (GSLDESFYDWFERQLG) | 40 nM | barely induce | 20% | no trace of any increase in phosphorylation |  |  |  |  |  | 
CC(C)C[C@H](NC(=O)[C@H](CCC(N)=O)NC(=O)[C@H](CCCNC(=N)N)NC(=O)[C@]1(C)CCCC=CCCCCCC[C@@](C)(NC(=O)[C@H](CC(=O)O)NC(=O)[C@H](CC(C)C)NC(=O)[C@H](CO)NC(=O)CN)C(=O)N[C@@H](CO)C(=O)N[C@@H](Cc2ccccc2)C(=O)N[C@@H](Cc2ccc(O)cc2)C(=O)N[C@@H](CC(=O)O)C(=O)N[C@@H](Cc2c[nH]c3ccccc23)C(=O)N[C@@H](Cc2ccccc2)C(=O)N1)C(=O)NCC(N)=O [SIRB-B5] (H-GSLD[R8]SFYDWF[S5]RQLG-NH2; staple 5-12; C-terminus assumed) |  |  |  |  | significant reduction | pulled down | pulled down | 1800 nM | 16% | antagonism
